# According to article PMC3152581 (Journal of natural products, 2010):
# Target: BACE1 (memapsin-2) (Homo sapiens, UniProt P56817)
# Experiment: BACE1 assay
# Type: biochemical
# Conditions: biological screening; result in words
# BACE1 (memapsin-2), sequence (P56817 46-501): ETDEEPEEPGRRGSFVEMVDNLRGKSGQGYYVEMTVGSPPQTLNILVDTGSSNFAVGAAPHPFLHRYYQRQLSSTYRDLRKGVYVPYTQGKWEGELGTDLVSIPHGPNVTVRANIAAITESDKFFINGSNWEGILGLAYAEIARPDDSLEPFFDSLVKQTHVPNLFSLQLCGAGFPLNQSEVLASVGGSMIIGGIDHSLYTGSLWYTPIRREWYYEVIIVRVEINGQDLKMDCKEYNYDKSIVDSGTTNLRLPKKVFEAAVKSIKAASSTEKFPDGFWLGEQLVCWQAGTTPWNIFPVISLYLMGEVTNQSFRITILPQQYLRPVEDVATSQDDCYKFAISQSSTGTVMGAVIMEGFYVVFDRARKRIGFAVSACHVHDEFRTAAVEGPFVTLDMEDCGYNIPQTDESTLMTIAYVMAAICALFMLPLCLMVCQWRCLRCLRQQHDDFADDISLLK
smiles,measurement,value
"C[C@@]12CC[C@H](O)[C@@H]3COC(=C31)C(=O)c1cc3c(OCCO)cccc3cc12 [Compound 1, Xestosaprol F]",Inhibition of BACE1 (in words),significantly less active
